Patent publication US20260315446A1, “ANTIFUNGAL COMPOUNDS AND USES THEREOF” (priority 2023, published 2026)

Experiments:
Format in all cases: in vivo, Cryptococcus neoformans in A/J mice
C. neoformans H99 = test: Survival in intranasal cryptococcosis model (Example 1); settings: 14 days treatment; JH-FK-05 60 mg/kg, fluconazole 12 mg/kg, i.p. daily
Procedure: To verify if this reduction seen in the fungal burdens of JH-FK-05 and combination-treated animals could translate into a meaningful therapeutic effect, the survival of animals infected via the intranasal route was assessed (FIG. 8A). As in the fungal burden model, these animals received daily treatment for only 14 days. Following the termination of treatment, animals were monitored for signs of decline, lethargy, and ultimately, moribundity. Untreated animals in this model typically survive for about 3 weeks, and similar results were observed here (vehicle treatment median survival, 22 days). Corroborating the results of the fungal burden study, a significant extension of survival for both JH-FK-05 (median survival, 26 days) and fluconazole (median survival, 25 days) was observed.
Female A/J mice (3 to 4 weeks old; Jackson Laboratory) were anesthetized utilizing an isoflurane chamber. While anesthetized, […] of 2×10^6 cells/mL suspension was dripped onto the nares of mice, allowing them to inhale the full inoculum. Treatment began 3 h following infection with i.p. dosing of vehicle, 60 mg/kg JH-FK-05, 12 mg/kg fluconazole, or combination. […] After 14 days, animals were either sacrificed for fungal burden analysis or monitored for health and survival until reaching a humane endpoint. […] Statistical significance was determined using log-rank (Mantel-Cox) tests.

C. neoformans strain H99 [1] = test: Murine cryptococcal infection, lung fungal burden (Example 3); settings: once daily; fluconazole 12 mg/kg, JH-FK-08 40 mg/kg
Procedure: In vivo antifungal activity and therapeutic benefit were assayed by investigating the impact of the FK520 analog on organ fungal burden during cryptococcosis. Specifically, the in vivo efficacy of JH-FK-08 on fungal burden was assessed using A/J female mice. Immunodeficient A/J mice were selected in part due to their defect in complement component five and their susceptibility to cryptococcal infection. Treatment groups included vehicle of 10% Kolliphor: ethanol (1:1) in phosphate-buffered saline (PBS), […], or the fluconazole and JH-FK-08 combination, […] infection. […] Mice were intranasally infected with C. neoformans strain H99, and fungal burden in the lung, spleen, and brain was assessed after 14 days of treatment.
(§1) C. neoformans inoculum was prepared by growing a 5-mL overnight YPD culture spinning in a tissue culture roller drum at 30° C. Cells were pelleted by centrifugation and washed in sterile PBS three times. Cell density was determined by hemocytometer, and cells were diluted to 2×10^6 cells/mL. Mice (10 to 20 g) were infected with 10^5 cells of C. neoformans H99. For inhalation infection, animals were anesthetized with isoflurane before 50 μL of inoculum was pipetted onto the upright nasal passages of each animal. Following inhalation of the inoculum, animals were monitored for post anesthesia recovery. Treatment of animals began 4 hours post infection and was continued for 14 days. Fungal burden was assessed 24 h after the final dose.
For survival curve analysis, animals were monitored until reaching defined humane end points, including social isolation, hunched posture, weight loss, lack of grooming, and labored breathing, and were then euthanized via CO2 inhalation. […] One hundred microliters of each dilution was plated on YPD plates supplemented with YPD 50 μg/mL ampicillin and 30 μg/mL chloramphenicol, incubated at 30° C. for 2 days, and assessed for colony-forming units. CFU per organ weight was calculated and plotted using GraphPad Prism 9.

C. neoformans strain H99 [2] = test: Murine cryptococcal infection, brain fungal burden (Example 3); settings: 14 days; fluconazole 6 mg/kg, JH-FK-08 40 mg/kg, i.p. twice per day
Procedure: In vivo antifungal activity and therapeutic benefit were assayed by investigating the impact of the FK520 analog on organ fungal burden during cryptococcosis. Specifically, the in vivo efficacy of JH-FK-08 on fungal burden was assessed using A/J female mice. Immunodeficient A/J mice were selected in part due to their defect in complement component five and their susceptibility to cryptococcal infection. Treatment groups included vehicle of 10% Kolliphor: ethanol (1:1) in phosphate-buffered saline (PBS), 6 mg/kg fluconazole, 40 mg/kg JH-FK-08, or the fluconazole and JH-FK-08 combination, all given via intraperitoneal (i.p.) injection twice per day beginning at 4 hours post infection. […] Mice were intranasally infected with C. neoformans strain H99, and fungal burden in the lung, spleen, and brain was assessed after 14 days of treatment.
as §1, with “For inhalation infection, animals were anesthetized with isoflurane before 50 μL of inoculum was pipetted onto the upright nasal passages of each animal.” left out, “Treatment of animals began 4 hours post infection and was continued for 14 days.” left out, “dose. […]” for “dose.”

Compound | median survival (C. neoformans H99) [days] | lung fungal burden reduction (C. neoformans strain H99 [1]) | brain fungal burden (C. neoformans strain H99 [2])
CC[C@@H]1/C=C(\C)C[C@H](C)C[C@H](OC)[C@H]2O[C@@](O)(C(=O)C(=O)N3CCCC[C@H]3C(=O)O[C@H](/C(C)=C/[C@@H]3CC[C@@H](O)[C@H](OC)C3)[C@H](C)[C@@H](O)C/C1=N/NC(C)=O)[C@H](C)C[C@@H]2OC [JH-FK-05] | 26 | – | –
CC[C@@H]1/C=C(\C)C[C@H](C)C[C@H](OC)[C@H]2O[C@@](O)(C(=O)C(=O)N3CCCC[C@H]3C(=O)O[C@H](/C(C)=C/C3CC[C@@H](O)[C@H](OC)C3)[C@H](C)[C@@H](O)C/C1=N/NC(=O)OC)[C@H](C)C[C@@H]2OC (stereo partly drawn) [JH-FK-08] | – | limited efficacy in reducing lung fungal burden | no detectable fungal burden
